Read-outs that look alike come from different tables or passages of the source.
Legend:
Format in all cases: cell-based
[1] = test system: Methicillin-Susceptible Staphylococcus aureus Isolates; experiment: MIC assay (NCCLS broth dilution), MSSA clinical isolates; conditions: Staphylococcus aureus
In short: (§1)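 Aqueous drug stocks (novobiocin 1600 μg/mL, others 640 μg/mL) sat one hour at room temperature before use. Agents were then diluted two-fold across 11 concentrations in Mueller Hinton II broth, and MICs were determined following NCCLS M7-A6.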

[2] = test system: Unconfirmed Vancomycin-intermediate Staphylococcus epidermidis Isolates; experiment: MIC assay (NCCLS broth dilution), unconfirmed VISE isolates; conditions: for MIC: Staphylococcus epidermidis
In short: as §1

[3] = test system: Linezolid-Resistant Staphylococcus aureus Isolates; experiment: MIC assay (NCCLS broth dilution), LRSA isolates; conditions: for MIC: Staphylococcus aureus
In short: as §1

CN[C@H](CC(C)C)C(=O)N[C@H]1C(=O)N[C@@H](CC(N)=O)C(=O)N[C@H]2C(=O)N[C@H]3C(=O)N[C@H](C(=O)N[C@H](C(=O)O)c4cc(O)cc(O)c4-c4cc3ccc4O)[C@H](O)c3ccc(c(Cl)c3)Oc3cc2cc(c3O[C@@H]2O[C@H](CO)[C@@H](O)[C@H](O)[C@H]2O[C@H]2C[C@](C)(N)[C@H](O)[C@H](C)O2)Oc2ccc(cc2Cl)[C@H]1O [VA, vancomycin]
1 µg/mL: MIC ([1]; read-out: Minimal Inhibitory Concentration, MSSA isolate 135, 03MAR06) | MIC ([1]; read-out: Minimal Inhibitory Concentration, MSSA isolate 755, 22FEB06) | MIC ([1]; read-out: Minimal Inhibitory Concentration, MSSA isolate 780, 03MAR06) | MIC ([1]; read-out: Minimal Inhibitory Concentration, MSSA isolate 782, 22FEB06) | MIC ([1]; read-out: Minimal Inhibitory Concentration, MSSA isolate 783, 22FEB06) | MIC ([1]; read-out: Minimal Inhibitory Concentration, MSSA isolate 789, 24FEB06) | MIC ([1]; read-out: Minimal Inhibitory Concentration, MSSA isolate 794, 24FEB06) | MIC ([1]; read-out: Minimal Inhibitory Concentration, MSSA isolate 994, 22FEB06) | MIC ([1]; read-out: Minimal Inhibitory Concentration, MSSA isolate 995, 03MAR06) | MIC ([1]; read-out: Minimal Inhibitory Concentration, MSSA isolate 997, 22FEB06) | MIC ([1]; read-out: Minimal Inhibitory Concentration, MSSA isolate 998, 03MAR06) | MIC ([1]; read-out: Minimal Inhibitory Concentration, MSSA isolate 1000, 24FEB06) | MIC ([1]; read-out: Minimal Inhibitory Concentration, MSSA isolate 1001, 24FEB06) | MIC ([1]; read-out: Minimal Inhibitory Concentration, MSSA isolate 1005, 24FEB06) | MIC ([1]; read-out: Minimal Inhibitory Concentration, MSSA isolate 1006, 24FEB06) | MIC ([1]; read-out: Minimal Inhibitory Concentration, MSSA isolate 1007, 24FEB06) | MIC ([1]; read-out: Minimal Inhibitory Concentration, MSSA isolate 1131, 24FEB06) | MIC ([1]; read-out: Minimal Inhibitory Concentration, MSSA isolate 1663, 03MAR06) | MIC ([1]; read-out: Minimal Inhibitory Concentration, MSSA isolate 1667, 03MAR06) | MIC ([1]; read-out: Minimal Inhibitory Concentration, MSSA isolate 1671, 03MAR06) | MIC ([1]; read-out: Minimal Inhibitory Concentration, MSSA isolate 1728, 03MAR06) | MIC ([1]; read-out: Minimal Inhibitory Concentration, MSSA isolate 1728, retest 09MAR06) | MIC ([3]; read-out: Minimal Inhibitory Concentration, LRSA isolate 1652, 24FEB06) | MIC ([3]; read-out: Minimal Inhibitory Concentration, LRSA isolate 1725, 24FEB06)
0.5 to 1 µg/mL: MIC Range ([3]; 3 LRSA isolates, combinations at 2.5:1)
2 µg/mL: MIC ([2]; read-out: Minimal Inhibitory Concentration, Unconfirmed VISE isolate 2024, 09MAR06)
4 µg/mL: MIC ([2]; read-out: Minimal Inhibitory Concentration, Unconfirmed VISE isolate 2025, 09MAR06) | MIC ([2]; read-out: Minimal Inhibitory Concentration, Unconfirmed VISE isolate 2026, 03MAR06)
0.5 µg/mL: MIC ([1]; read-out: Minimal Inhibitory Concentration, MSSA isolate 134, 03MAR06) | MIC ([1]; read-out: Minimal Inhibitory Concentration, MSSA isolate 753, 22FEB06) | MIC ([1]; read-out: Minimal Inhibitory Concentration, MSSA isolate 754, 22FEB06) | MIC ([1]; read-out: Minimal Inhibitory Concentration, MSSA isolate 754, 24FEB06) | MIC ([1]; read-out: Minimal Inhibitory Concentration, MSSA isolate 756, 03MAR06) | MIC ([1]; read-out: Minimal Inhibitory Concentration, MSSA isolate 779, 22FEB06) | MIC ([1]; read-out: Minimal Inhibitory Concentration, MSSA isolate 781, 03MAR06) | MIC ([1]; read-out: Minimal Inhibitory Concentration, MSSA isolate 784, 22FEB06) | MIC ([1]; read-out: Minimal Inhibitory Concentration, MSSA isolate 785, 22FEB06) | MIC ([1]; read-out: Minimal Inhibitory Concentration, MSSA isolate 786, 22FEB06) | MIC ([1]; read-out: Minimal Inhibitory Concentration, MSSA isolate 787, 22FEB06) | MIC ([1]; read-out: Minimal Inhibitory Concentration, MSSA isolate 788, 22FEB06) | MIC ([1]; read-out: Minimal Inhibitory Concentration, MSSA isolate 790, 24FEB06) | MIC ([1]; read-out: Minimal Inhibitory Concentration, MSSA isolate 791, 24FEB06) | MIC ([1]; read-out: Minimal Inhibitory Concentration, MSSA isolate 792, 03MAR06) | MIC ([1]; read-out: Minimal Inhibitory Concentration, MSSA isolate 793, 24FEB06) | MIC ([1]; read-out: Minimal Inhibitory Concentration, MSSA isolate 996, 22FEB06) | MIC ([1]; read-out: Minimal Inhibitory Concentration, MSSA isolate 999, 22FEB06) | MIC ([1]; read-out: Minimal Inhibitory Concentration, MSSA isolate 1002, 24FEB06) | MIC ([1]; read-out: Minimal Inhibitory Concentration, MSSA isolate 1003, 03MAR06) | MIC ([1]; read-out: Minimal Inhibitory Concentration, MSSA isolate 1008, 24FEB06) | MIC ([1]; read-out: Minimal Inhibitory Concentration, MSSA isolate 1009, 24FEB06) | MIC ([1]; read-out: Minimal Inhibitory Concentration, MSSA isolate 1132, 03MAR06) | MIC ([1]; read-out: Minimal Inhibitory Concentration, MSSA isolate 1133, 24FEB06) | MIC ([1]; read-out: Minimal Inhibitory Concentration, MSSA isolate 1134, 24FEB06) | MIC ([1]; read-out: Minimal Inhibitory Concentration, MSSA isolate 1654, 03MAR06) | MIC ([1]; read-out: Minimal Inhibitory Concentration, MSSA isolate 1656, 03MAR06) | MIC ([1]; read-out: Minimal Inhibitory Concentration, MSSA isolate 1662, 03MAR06) | MIC ([1]; read-out: Minimal Inhibitory Concentration, MSSA isolate 1666, 03MAR06) | MIC ([1]; read-out: Minimal Inhibitory Concentration, MSSA isolate 1668, 03MAR06) | MIC ([3]; read-out: Minimal Inhibitory Concentration, LRSA isolate 1651, 24FEB06)
1 to 4 µg/mL: MIC Range ([2]; 3 unconfirmed VISE isolates, combinations at 2.5:1)

— patent US20070281992A1, “COMBINATION OF GYRASE B INHIBITORS AND PROTEIN SYNTHESIS INHIBITORS AND USES THEREOF” (priority 2006, published 2007)
